Article PMC11822212, “High-throughput screening identifies Aurora kinase B as a critical therapeutic target for Merkel cell carcinoma” (Nature Communications, 2025)
Structures can show the parent of a compound that is named as a salt. Where two headings read alike, the source gives them in different places.

What was measured:
NIH-3T3 cells = experiment: qHTS cell viability (CellTiter-Glo, 72 h; primary screen), control cell line; type: cell-based, mouse
[1] = tested on: six MCC cell lines and four control cell lines; experiment: qHTS cell viability, all 10 cell lines screened; type: cell-based
[2] = tested on: VP-MCC cell lines (WAGA, MKL-1, MKL-2); experiment: qHTS cell viability, VP-MCC cell lines as a group (mean AUC, VP.MCC.avg); type: cell-based, human
CRL-7250 cells = experiment: qHTS cell viability (CellTiter-Glo, 72 h; primary screen), control cell line; type: cell-based
MKL-1 cells (VP-MCC) = experiment: qHTS cell viability (CellTiter-Glo, 72 h; primary and follow-up small molecule screen); type: cell-based, human
[3] = tested on: MCC cell lines (WAGA, MKL-1, MKL-2, MCC13, MCC26, UISO); experiment: qHTS cell viability, all six MCC cell lines as a group (mean AUC, MCC.avg); type: cell-based, human
MKL-2 cells (VP-MCC) = experiment: qHTS cell viability (CellTiter-Glo, 72 h; primary and follow-up small molecule screen); type: cell-based, human
UISO cells (VN-MCC) = experiment: as above; type: cell-based, human
MCC26 cells (VN-MCC) = experiment: as above; type: cell-based, human
HACAT cells = experiment: qHTS cell viability (CellTiter-Glo, 72 h; primary screen), control cell line; type: cell-based, human
WAGA cells (VP-MCC) = experiment: qHTS cell viability (CellTiter-Glo, 72 h; primary and follow-up small molecule screen); type: cell-based, human
[4] = tested on: VN-MCC cell lines (MCC13, MCC26, UISO); experiment: qHTS cell viability, VN-MCC cell lines as a group (mean AUC, VN.MCC.avg); type: cell-based, human
MCC13 cells (VN-MCC) = experiment: qHTS cell viability (CellTiter-Glo, 72 h; primary and follow-up small molecule screen); type: cell-based, human
[5] = tested on: control cell lines (HACAT, HEK293T, CRL-7250, NIH-3T3); experiment: qHTS cell viability, control cell lines as a group (mean AUC, Control.avg); type: cell-based
HEK293T cells = experiment: qHTS cell viability (CellTiter-Glo, 72 h; primary screen), control cell line; type: cell-based, human
[6] = NPC library, qHTS dose-response AUC, NIH3T3 control
[7] = NPC library, therapeutic window: Control avg AUC minus MCC avg AUC
[8] = NPC library, mean AUC of VP-MCC cell lines
[9] = NPC library, therapeutic window: Control avg AUC minus VP-MCC avg AUC
[10] = NPC library, qHTS dose-response AUC, CRL7250 control
[11] = NPC library, qHTS dose-response AUC, MKL1
[12] = NPC library, mean AUC of six MCC cell lines
[13] = NPC library, qHTS dose-response AUC, MKL2
[14] = NPC library, qHTS dose-response AUC, UISO
[15] = NPC library, qHTS dose-response AUC, HACAT control
[16] = NPC library, qHTS dose-response AUC, WAGA
[17] = NPC library, mean AUC of VN-MCC cell lines
[18] = NPC library, therapeutic window: Control avg AUC minus VN-MCC avg AUC
[19] = NPC library, qHTS dose-response AUC, MCC13
[20] = NPC library, mean AUC of control cell lines
[21] = MIPE library, 11-point DRC, control cell line, sheet S2E
[22] = MIPE library, Control AUC minus MCC AUC (therapeutic window), sheet S2E
[23] = MIPE library, Control AUC minus VP-MCC AUC (therapeutic window), sheet S2E
[24] = MIPE library, mean AUC of VP-MCC cell lines, sheet S2E
[25] = MIPE library, 11-point DRC, sheet S2E
[26] = MIPE library, mean AUC of six MCC cell lines, sheet S2E
[27] = MIPE library, Control AUC minus VN-MCC AUC (therapeutic window), sheet S2E
[28] = MIPE library, mean AUC of VN-MCC cell lines, sheet S2E
[29] = MIPE library, mean AUC of control cell lines, sheet S2E

SMILES: O=C(N/N=C/c1ccccc1O)c1ccncc1 [Salinazid]
- NIH3T3_AUC (NIH-3T3 cells; [6]): 449.726
- Control-MCC [1, 7]: 71.983
- Control-VP-MCC ([2]; Control AUC minus VP-MCC AUC): 91.9801
- VP-MCC_Avg_AUC [2, 8]: 368.113
- Control-VP-MCC [2, 9]: 91.9801
- CRL7250_AUC (CRL-7250 cells; [10]): 476.052
- MKL1_AUC (MKL-1 cells (VP-MCC); [11]): 355.467
- MCC_Avg_AUC ([3]; NPC library, mean AUC of all 6 MCC cell lines): 388.11
- MCC_Avg_AUC [3, 12]: 388.11
- MKL2_AUC (MKL-2 cells (VP-MCC); [13]): 340.216
- UISO_AUC (UISO cells (VN-MCC); [14]): 339.128
- MCC26_AUC (MCC26 cells (VN-MCC); NPC library, qHTS dose-response AUC, MCC26): 445.789
- HACAT_AUC (HACAT cells; [15]): 455.974
- WAGA_AUC (WAGA cells (VP-MCC); [16]): 408.656
- Control-VN-MCC ([4]; Control AUC minus VN-MCC AUC): 51.9858
- VN-MCC_Avg_AUC [4, 17]: 408.107
- Control-VN-MCC [4, 18]: 51.9858
- MCC13_AUC (MCC13 cells (VN-MCC); [19]): 439.405
- Control_Avg_AUC [5, 20]: 460.093
- HEK293T_AUC (HEK293T cells; NPC library, qHTS dose-response AUC, HEK293T control): 458.621

SMILES: C#CCN(C)[C@H](C)Cc1ccccc1 [Selegiline hydrochloride]
- NIH3T3_AUC (NIH-3T3 cells): 471.047
- Control-MCC [1]: 26.4329
- Control-VP-MCC [2]: 51.4197
- VP-MCC_Avg_AUC [2]: 408.101
- CRL7250_AUC (CRL-7250 cells): 455.418
- MKL1_AUC (MKL-1 cells (VP-MCC)): 401.694
- MCC_Avg_AUC [3]: 433.088
- MKL2_AUC (MKL-2 cells (VP-MCC)): 391.028
- UISO_AUC (UISO cells (VN-MCC)): 478.192
- MCC26_AUC (MCC26 cells (VN-MCC)): 442.321
- HACAT_AUC (HACAT cells): 471.82
- WAGA_AUC (WAGA cells (VP-MCC)): 431.581
- Control-VN-MCC [4]: 1.446
- VN-MCC_Avg_AUC [4]: 458.075
- MCC13_AUC (MCC13 cells (VN-MCC)): 453.711
- Control_Avg_AUC [5]: 459.521
- HEK293T_AUC (HEK293T cells): 439.797

SMILES: CN[C@@H]1[C@H](O)[C@H](NC)[C@H]2O[C@@]3(O)C(=O)C[C@@H](C)O[C@H]3O[C@@H]2[C@H]1O.Cl.Cl [Spectinomycin dihydrochloride]
- NIH3T3_AUC (NIH-3T3 cells; [21]): 480.157
- NIH3T3_AUC (NIH-3T3 cells; area under the dose-response curve, NIH3T3 control cells, AUC<450 = reduced viability): 486.283
- Control-MCC [1, 22]: 109.955
- Control-VP-MCC [2, 23]: 192.409
- VP-MCC_Avg_AUC [2, 24]: 280.167
- CRL7250_AUC (CRL-7250 cells; [21]): 477.882
- CRL7250_AUC (CRL-7250 cells; area under the dose-response curve, CRL7250 control cells, AUC<450 = reduced viability): 453.169
- MKL1_AUC (MKL-1 cells (VP-MCC); [25]): 242.204
- MKL1_AUC (MKL-1 cells (VP-MCC); area under the dose-response curve, MKL-1 cells, AUC<450 = reduced viability): 379.185
- MCC_Avg_AUC [3, 26]: 362.621
- MKL2_AUC (MKL-2 cells (VP-MCC); [25]): 323.757
- MKL2_AUC (MKL-2 cells (VP-MCC); area under the dose-response curve, MKL-2 cells, AUC<450 = reduced viability): 429.069
- UISO_AUC (UISO cells (VN-MCC); [25]): 392.644
- UISO_AUC (UISO cells (VN-MCC); area under the dose-response curve, UISO cells, AUC<450 = reduced viability): 477.843
- MCC26_AUC (MCC26 cells (VN-MCC); [25]): 481.076
- MCC26_AUC (MCC26 cells (VN-MCC); area under the dose-response curve, MCC26 cells; AUC<450 = reduced viability): 511.183
- HACAT_AUC (HACAT cells; [21]): 460.149
- HACAT_AUC (HACAT cells; area under the dose-response curve, HACAT control cells, AUC<450 = reduced viability): 475.545
- WAGA_AUC (WAGA cells (VP-MCC); [25]): 274.54
- WAGA_AUC (WAGA cells (VP-MCC); area under the dose-response curve, WAGA cells, AUC<450 = reduced viability): 400.83
- Control-VN-MCC [4, 27]: 27.501
- VN-MCC_Avg_AUC [4, 28]: 445.075
- MCC13_AUC (MCC13 cells (VN-MCC); [25]): 461.506
- MCC13_AUC (MCC13 cells (VN-MCC); area under the dose-response curve, MCC13 cells, AUC<450 = reduced viability): 467.588
- Control_Avg_AUC [5, 29]: 472.576
- HEK293T_AUC (HEK293T cells; [21]): 472.116
- HEK293T_AUC (HEK293T cells; area under the dose-response curve, HEK293T control cells; AUC<450 = reduced viability): 456.43

SMILES: CC[N+](CC)(CC)CCOc1ccc(/C=C/c2ccccc2)cc1 [Stilonium iodide]
- NIH3T3_AUC (NIH-3T3 cells): 427.937
- Control-MCC [1]: 21.0388
- Control-VP-MCC [2]: 60.3449
- VP-MCC_Avg_AUC [2]: 322.637
- CRL7250_AUC (CRL-7250 cells): 355.764
- MKL1_AUC (MKL-1 cells (VP-MCC)): 307.411
- MCC_Avg_AUC [3]: 361.943
- MKL2_AUC (MKL-2 cells (VP-MCC)): 312.305
- UISO_AUC (UISO cells (VN-MCC)): 334.732
- MCC26_AUC (MCC26 cells (VN-MCC)): 402.111
- HACAT_AUC (HACAT cells): 372.384
- WAGA_AUC (WAGA cells (VP-MCC)): 348.194
- Control-VN-MCC [4]: -18.2672
- VN-MCC_Avg_AUC [4]: 401.249
- MCC13_AUC (MCC13 cells (VN-MCC)): 466.903
- Control_Avg_AUC [5]: 382.981
- HEK293T_AUC (HEK293T cells): 375.842

SMILES: O=C(CCCCCCC(=O)Nc1ccccc1)NO [Suberoylanilide hydroxamic acid]
- NIH3T3_AUC (NIH-3T3 cells; [21]): 416.277
- Control-MCC [1, 22]: 28.5854
- Control-VP-MCC [2, 23]: 69.1958
- VP-MCC_Avg_AUC [2, 24]: 355.337
- CRL7250_AUC (CRL-7250 cells; [21]): 429.882
- MKL1_AUC (MKL-1 cells (VP-MCC); [25]): 374.242
- MCC_Avg_AUC [3, 26]: 395.947
- MKL2_AUC (MKL-2 cells (VP-MCC); [25]): 344.522
- UISO_AUC (UISO cells (VN-MCC); [25]): 422.155
- MCC26_AUC (MCC26 cells (VN-MCC); [25]): 457.523
- HACAT_AUC (HACAT cells; [21]): 451.394
- WAGA_AUC (WAGA cells (VP-MCC); [25]): 347.247
- Control-VN-MCC [4, 27]: -12.0249
- VN-MCC_Avg_AUC [4, 28]: 436.558
- MCC13_AUC (MCC13 cells (VN-MCC); [25]): 429.995
- Control_Avg_AUC [5, 29]: 424.533
- HEK293T_AUC (HEK293T cells; [21]): 400.579

SMILES: [H]/N=C(/NCCCCC)N/N=C/c1c[nH]c2ccc(OC)cc12 [Tegaserod]
- NIH3T3_AUC (NIH-3T3 cells; [6]): 444.55
- Control-MCC [1, 7]: 71.3268
- VP-MCC_Avg_AUC [2, 8]: 263.329
- Control-VP-MCC [2, 9]: 156.909
- CRL7250_AUC (CRL-7250 cells; [10]): 432.653
- MKL1_AUC (MKL-1 cells (VP-MCC); [11]): 250.061
- MCC_Avg_AUC [3, 12]: 348.911
- MKL2_AUC (MKL-2 cells (VP-MCC); [13]): 260.213
- UISO_AUC (UISO cells (VN-MCC); [14]): 401.587
- MCC26_AUC (MCC26 cells (VN-MCC); NPC library; qHTS dose-response AUC, MCC26): 428.067
- HACAT_AUC (HACAT cells; [15]): 397.896
- WAGA_AUC (WAGA cells (VP-MCC); [16]): 279.713
- VN-MCC_Avg_AUC [4, 17]: 434.493
- Control-VN-MCC [4, 18]: -14.2555
- MCC13_AUC (MCC13 cells (VN-MCC); [19]): 473.827
- Control_Avg_AUC [5, 20]: 420.238
- HEK293T_AUC (HEK293T cells; NPC library; qHTS dose-response AUC, HEK293T control): 405.853
